The text below walks through data of ChEMBL document CHEMBL1143024, “Clavaminols A-F, novel cytotoxic 2-amino-3-alkanols from the ascidian Clavelina phlegraea” (Bioorg Med Chem, 2007).

Converted amounts (≈) assume the structure as drawn. The source made the active and inactive calls. The rule behind the calls is not given here.

One assay has as its system AGS. As to the kind of experiment: Cytotoxicity against human AGS cells after 24 hrs by calcein uptake assay. Format: functional, cell-based.
For the next assay, the system named is A549. As to the kind of experiment: Cytotoxicity against human A549 cells after 24 hrs by calcein uptake assay. Type of assay: functional, cell-based.
For assay [1], the system named is Jurkat. Description: Cell cycle arrest in human Jurkat cells assessed as accumulation at G1/S phase at 10 ug/mL after 18 hrs […]. Format: functional, cell-based.
Another assay concerns T47D. As to the kind of experiment: Cytotoxicity against human T47D cells after 24 hrs by calcein uptake assay. Format: functional, cell-based.
Assay [2] concerns Jurkat. Description: Induction of apoptosis in human Jurkat cells assessed as increase in hypodiploid cells at 10 ug/mL after 18 hrs by TUNEL method. Format: functional.

For the compound `CCCCCCCCC[C@H](O)[C@@H](C)NC(C)=O`, in the assay on AGS, the result was inactive.
Same read-out and setting: the result for `CCCCCCCCC[C@H](OC(C)=O)[C@@H](C)N` reads “inactive”.
Take `CCCCCCCCC[C@H](O)[C@@H](C)N` [CLAVAMINOL A]: the outcome in the assay on A549, in the assay with Jurkat [1] and with T47D was Active. For the same compound, the Activity with Jurkat [2] came out at 44.6%. Further, the IC50 in the assay with AGS was 5 µg/mL (≈ 24.8 µM).
